The source of these data is patent publication US12049460B2, “EGFR inhibitor compounds” (Recurium IP Holdings, LLC, priority 2016, dated 2024).

For orientation: IC50 means the concentration that inhibits the measured activity by half. Lower therefore signals greater potency in that assay.

For one series, the system named is H1975 (L858R/T790M). Put plainly: EGFR cell proliferation assay (CellTiter-Glo), H1975. The conditions noted are these: Homo sapiens, NCI-H1975, 3-5 days of compound treatment. The class given is cell-based. On the procedure: (§1) Cell Lines: A431 (WT), H1975 (L858R/T790M), PC9 (E746-A750 deletion): A431 cells were grown in DMEM (Invitrogen, Carlsbad, CA) supplemented with 10% FBS (HyClone, South Logan, UT) and 1% Penicillin-Streptomycin (P/S, Lonza, Walkersville, MD). H1975 cells were grown in RPMI 1640 (Invitrogen) supplemented with 10% FBS and 1% P/S. […] PC-9 cells were obtained from Japan. All cells were maintained and propagated as monolayer cultures at 37° C. in a humidified 5% CO2 incubator. All cells were cultured according to recommendations.
(§2) Cell proliferation was measured using the CellTiter-Glo® Luminescent Cell Viability Assay. The assay involved the addition of a single reagent (CellTiter-Glo® Reagent) directly to cells cultured in serum-supplemented medium. The assay used a one-step addition to induce cell lysis and generate a luminescent signal proportional to the amount of ATP present, which is directly proportional to the number of metabolically active cells present in culture.
(§3) Each compound evaluated was prepared as a DMSO stock solution (10 mM). Compounds were tested in duplicate on each plate, with an 11-point serial dilution curve (1:3 dilution). Compound treatment (50 μL) was added from the compound dilution plate to the cell plate. The highest compound concentration was 1 or 10 μM (final), with a 0.3% final DMSO (#D-5879, Sigma, St Louis, MO) concentration. Plates were then incubated at 37° C., 5% CO2. After 3-5 days of compound treatment, CellTiter-Glo® Reagent (#G7573, Promega, Madison, WI) was prepared in one of two ways. If thawing a frozen aliquot of CellTiter-Glo® Reagent, the aliquot was thawed and equilibrated to RT prior to use while keeping it protected from light. Alternatively, new bottles of CellTiter-Glo® Buffer and CellTiter-Glo® Substrate were thawed and equilibrated to RT prior to use. CellTiter-Glo® Buffer (100 mL) was transferred into the amber bottle containing CellTiter-Glo® Substrate to reconstitute the lyophilized enzyme/substrate mixture, forming the CellTiter-Glo® Reagent. The reconstituted reagent was mixed by gently inverting the contents to obtain a homogeneous solution, and went into solution easily in less than 1 min. Any unused reconstituted CellTiter-Glo® Reagent was immediately aliquoted and frozen at −20° C., and protected from light. Cell plates were equilibrated at RT for approximately 30 mins. An equi-volume amount of CellTiter-Glo® Reagent (100 μL) was added to each well. Plates were mixed for 2 mins on an orbital shaker to induce cell lysis, and then were allowed to incubate at RT for 10 mins to stabilize the luminescent signal. Luminescence was recorded using the PerkinElmer EnVision Excite Multilabel Reader used for endpoint reading for luminescence detection (Waltham, MA). Data was analyzed using a four-parameter fit in Microsoft Excel.

Another series relates to PC9 (E746-A750 deletion). Put plainly: EGFR cell proliferation assay (CellTiter-Glo), PC9. The class given is cell-based. The conditions noted are these: 3-5 days of compound treatment. On the procedure:
as §1, §2, §3
(In general: ATP-based viability assays read luminescence as a measure of living cells.)

Another series deals with A431 (WT). Put plainly: EGFR cell proliferation assay (CellTiter-Glo), A431. The class given is cell-based. The conditions noted are these: Homo sapiens, A-431, 3-5 days of compound treatment. On the procedure:
as §1, §2, §3

The next series concerns the target T1, EGFR Del-19 (Homo sapiens, UniProt P00533).
T1 construct: as for the T790M/L858R enzyme of the same protocol
Put plainly: EGFR biochemical enzyme assay, Del-19. The method, then:
[The source words this procedure for another variant and reports this variant under the same test.] (§4) The inhibitory activity of a compound against EGFR (T790M/L858R) were determined with CisBio HTRF (homogenous time-resolved fluorescence) KinEASE TK (#62TKOPEC). The enzyme reaction contained recombinant N-terminal GST-tagged human EGFR (T790M/L858R), which phosphorylates the HTRF tyrosine kinase biotinylated substrate.
(§5) The sequence of the substrate is proprietary to CisBio. Test compounds were serially diluted in 100% (v/v) DMSO before being acoustically dispensed from an Echo 555 (Labcyte) into black Corning 1536-well assay plates. Kinase activity assays were performed in a total reaction volume of 3 μL per well. A 1.5 μL enzyme reaction consisted of 1.6 nM EGFR ([…], L858R), 1 mM DTT, and 10 mM MgCl2. A 1.5 μL substrate mix consisted of 1 μM TK substrate, 30 μM ATP, 1 mM DTT, and 10 mM MgCl2. Following a 50 mins incubation, 3 μL of stop mix was added, which consisted of 250 nM Strep-XL665 and TK Ab-Cryptate diluted in kit detection buffer. The plates were incubated for 1 h before being read on Pherastar using standard HTRF settings. N-terminal GST-tagged recombinant human EGF receptor, with amino acids 696-end containing the T790M and L858R mutations, was obtained from Millipore.

In the next series the target is IGF1R (Homo sapiens, UniProt P08069). Description: Biochemical enzyme assay, IGF1R.
IGF1R, sequence (P08069 31-1367, species assumed): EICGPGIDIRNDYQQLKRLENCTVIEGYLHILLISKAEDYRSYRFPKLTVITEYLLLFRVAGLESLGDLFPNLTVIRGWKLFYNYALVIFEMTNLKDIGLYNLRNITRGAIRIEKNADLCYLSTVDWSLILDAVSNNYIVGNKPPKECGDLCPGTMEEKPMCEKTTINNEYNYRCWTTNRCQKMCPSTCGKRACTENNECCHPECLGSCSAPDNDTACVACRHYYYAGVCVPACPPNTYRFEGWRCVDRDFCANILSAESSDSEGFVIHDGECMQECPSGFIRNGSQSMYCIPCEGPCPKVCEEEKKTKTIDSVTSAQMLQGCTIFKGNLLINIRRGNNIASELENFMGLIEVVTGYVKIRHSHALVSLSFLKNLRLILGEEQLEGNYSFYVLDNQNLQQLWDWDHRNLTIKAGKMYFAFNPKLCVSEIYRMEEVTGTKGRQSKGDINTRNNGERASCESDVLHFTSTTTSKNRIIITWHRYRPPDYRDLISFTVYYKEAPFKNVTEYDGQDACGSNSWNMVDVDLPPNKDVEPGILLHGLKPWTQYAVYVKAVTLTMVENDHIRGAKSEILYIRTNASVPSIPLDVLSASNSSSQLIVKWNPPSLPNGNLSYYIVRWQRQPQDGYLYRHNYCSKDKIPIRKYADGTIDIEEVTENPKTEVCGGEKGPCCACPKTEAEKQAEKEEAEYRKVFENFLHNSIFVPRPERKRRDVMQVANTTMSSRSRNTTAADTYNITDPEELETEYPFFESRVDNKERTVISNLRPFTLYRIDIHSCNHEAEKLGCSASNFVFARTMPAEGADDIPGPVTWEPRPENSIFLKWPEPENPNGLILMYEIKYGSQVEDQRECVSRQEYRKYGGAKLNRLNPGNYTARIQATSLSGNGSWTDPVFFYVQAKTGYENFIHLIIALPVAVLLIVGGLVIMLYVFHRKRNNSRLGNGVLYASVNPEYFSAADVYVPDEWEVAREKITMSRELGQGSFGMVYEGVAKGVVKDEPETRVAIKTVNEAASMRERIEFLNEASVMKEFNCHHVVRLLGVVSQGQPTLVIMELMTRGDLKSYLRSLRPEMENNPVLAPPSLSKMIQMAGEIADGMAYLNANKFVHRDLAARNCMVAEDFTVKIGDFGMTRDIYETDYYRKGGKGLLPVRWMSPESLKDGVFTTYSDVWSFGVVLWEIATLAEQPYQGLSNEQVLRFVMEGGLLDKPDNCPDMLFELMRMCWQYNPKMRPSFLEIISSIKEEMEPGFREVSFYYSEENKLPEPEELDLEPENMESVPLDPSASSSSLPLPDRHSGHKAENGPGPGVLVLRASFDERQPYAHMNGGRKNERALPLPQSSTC
The target in the next series is T2, EGFR (T790M/L858R) (Homo sapiens, UniProt P00533, L858R/T790M).
T2 construct: with amino acids 696-end containing the T790M and L858R mutations; GST (N); purchased Millipore
Description: EGFR biochemical enzyme assay (CisBio HTRF KinEASE TK). The conditions noted are these: 30 μM ATP in substrate mix, 50 mins incubation. The method, then: as §4, §5
For orientation: Time-resolved FRET reads energy transfer from a long-lived donor to a nearby acceptor.

The target of a further series is EGFR Wt (Homo sapiens, UniProt P00533). Description: EGFR biochemical enzyme assay, Wt. The method, then:
[The source words this procedure for another variant and reports this variant under the same test.] as §4, §5

A further series has as its target INSR (Homo sapiens, UniProt P06213). Put plainly: Biochemical enzyme assay, INSR.
The target of a further series is EGFR L858R (Homo sapiens, UniProt P00533, L858R). Put plainly: EGFR biochemical enzyme assay, L858R. The method, then: [The source words this procedure for another variant and reports this variant under the same test.] as §4, §5
The test system of a further series is hepatocytes. Description: Metabolite identification in hepatocytes, human. The series is classed as in vitro ADME. The conditions noted are these: 10 μM, 240 min, formation of AZ5104 via de-alkylation on the indole ring. The method, then:
Suspended hepatocytes in enough incubation medium to yield ˜1.5×10^6 cells/mL. Pipetted 199 μL of viable hepatocytes or the boiled hepatocytes into each wells of a 96-well non-coated plate. Placed the plate in the incubator on an orbital shaker to allow the hepatocytes to warm for 10 minutes. Pipetted 1 μL of the 2 mM test compound(s) into respective wells of the 96-well non-coated plate to start the reaction with final concentration of 10 μM. Returned the plate to the incubator and placed on an orbital shaker. Incubated at 37° C., 5% CO2 and 90-95% relative humidity with shaking at 500 rpm on the shaker for 240 min. After incubation, transferred media from each well to a tube containing 400 μL cold methanol, washed the well with 200 μL cold methanol and then transferred the media to the corresponding tube. Centrifuged tubes for 10 minutes at 16,000 g. Aliquots of 200 μL of the supernatants were mixed with 200 μL of pure water and used for LC-MS/MS analysis. UHPLC-MS/MS analysis was conducted using a Dionex UltiMate 3000 UHPLC system (Thermo Fisher Scientific, USA) and Thermo Scientific Q Exactive (Thermo Fisher Scientific, USA) fitted with a HESI probe. […]

INSR, sequence (P06213 28-1382, species assumed): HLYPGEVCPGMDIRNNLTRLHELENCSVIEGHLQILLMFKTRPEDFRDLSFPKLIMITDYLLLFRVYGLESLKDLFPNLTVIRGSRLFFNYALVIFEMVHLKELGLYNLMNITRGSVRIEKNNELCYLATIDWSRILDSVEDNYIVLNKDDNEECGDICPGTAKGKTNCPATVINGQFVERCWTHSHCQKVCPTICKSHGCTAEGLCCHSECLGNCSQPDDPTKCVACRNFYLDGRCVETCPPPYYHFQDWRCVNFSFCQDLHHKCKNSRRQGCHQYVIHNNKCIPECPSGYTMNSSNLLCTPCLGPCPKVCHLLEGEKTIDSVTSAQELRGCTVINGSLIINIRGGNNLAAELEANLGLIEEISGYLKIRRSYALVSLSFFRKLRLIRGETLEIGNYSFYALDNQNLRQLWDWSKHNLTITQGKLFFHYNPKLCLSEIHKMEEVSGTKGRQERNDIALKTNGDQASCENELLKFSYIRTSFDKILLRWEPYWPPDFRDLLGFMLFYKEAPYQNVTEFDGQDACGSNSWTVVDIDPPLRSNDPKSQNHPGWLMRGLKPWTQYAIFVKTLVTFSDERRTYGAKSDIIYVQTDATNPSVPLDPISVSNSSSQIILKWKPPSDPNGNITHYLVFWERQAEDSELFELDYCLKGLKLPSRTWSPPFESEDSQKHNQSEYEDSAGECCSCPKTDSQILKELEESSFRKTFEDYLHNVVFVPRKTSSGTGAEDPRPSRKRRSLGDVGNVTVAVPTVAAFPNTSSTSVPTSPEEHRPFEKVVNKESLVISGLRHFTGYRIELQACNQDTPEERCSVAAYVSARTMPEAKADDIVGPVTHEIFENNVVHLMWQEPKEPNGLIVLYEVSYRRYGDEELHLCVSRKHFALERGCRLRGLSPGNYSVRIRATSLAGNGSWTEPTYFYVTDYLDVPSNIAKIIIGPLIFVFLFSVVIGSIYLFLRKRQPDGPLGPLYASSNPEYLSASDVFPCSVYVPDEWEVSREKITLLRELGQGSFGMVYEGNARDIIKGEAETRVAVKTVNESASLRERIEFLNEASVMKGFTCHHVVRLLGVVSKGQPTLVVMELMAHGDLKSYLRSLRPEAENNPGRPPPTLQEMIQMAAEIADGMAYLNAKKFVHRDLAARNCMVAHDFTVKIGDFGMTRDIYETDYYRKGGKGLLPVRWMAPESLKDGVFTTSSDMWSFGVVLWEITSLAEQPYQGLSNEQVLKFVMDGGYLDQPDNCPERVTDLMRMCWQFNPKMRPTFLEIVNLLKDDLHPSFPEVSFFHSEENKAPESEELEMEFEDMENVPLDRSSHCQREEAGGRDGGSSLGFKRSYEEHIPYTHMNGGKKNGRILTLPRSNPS
T1 sequence (P00533 with tags, fused parts or gaps DEL746-750): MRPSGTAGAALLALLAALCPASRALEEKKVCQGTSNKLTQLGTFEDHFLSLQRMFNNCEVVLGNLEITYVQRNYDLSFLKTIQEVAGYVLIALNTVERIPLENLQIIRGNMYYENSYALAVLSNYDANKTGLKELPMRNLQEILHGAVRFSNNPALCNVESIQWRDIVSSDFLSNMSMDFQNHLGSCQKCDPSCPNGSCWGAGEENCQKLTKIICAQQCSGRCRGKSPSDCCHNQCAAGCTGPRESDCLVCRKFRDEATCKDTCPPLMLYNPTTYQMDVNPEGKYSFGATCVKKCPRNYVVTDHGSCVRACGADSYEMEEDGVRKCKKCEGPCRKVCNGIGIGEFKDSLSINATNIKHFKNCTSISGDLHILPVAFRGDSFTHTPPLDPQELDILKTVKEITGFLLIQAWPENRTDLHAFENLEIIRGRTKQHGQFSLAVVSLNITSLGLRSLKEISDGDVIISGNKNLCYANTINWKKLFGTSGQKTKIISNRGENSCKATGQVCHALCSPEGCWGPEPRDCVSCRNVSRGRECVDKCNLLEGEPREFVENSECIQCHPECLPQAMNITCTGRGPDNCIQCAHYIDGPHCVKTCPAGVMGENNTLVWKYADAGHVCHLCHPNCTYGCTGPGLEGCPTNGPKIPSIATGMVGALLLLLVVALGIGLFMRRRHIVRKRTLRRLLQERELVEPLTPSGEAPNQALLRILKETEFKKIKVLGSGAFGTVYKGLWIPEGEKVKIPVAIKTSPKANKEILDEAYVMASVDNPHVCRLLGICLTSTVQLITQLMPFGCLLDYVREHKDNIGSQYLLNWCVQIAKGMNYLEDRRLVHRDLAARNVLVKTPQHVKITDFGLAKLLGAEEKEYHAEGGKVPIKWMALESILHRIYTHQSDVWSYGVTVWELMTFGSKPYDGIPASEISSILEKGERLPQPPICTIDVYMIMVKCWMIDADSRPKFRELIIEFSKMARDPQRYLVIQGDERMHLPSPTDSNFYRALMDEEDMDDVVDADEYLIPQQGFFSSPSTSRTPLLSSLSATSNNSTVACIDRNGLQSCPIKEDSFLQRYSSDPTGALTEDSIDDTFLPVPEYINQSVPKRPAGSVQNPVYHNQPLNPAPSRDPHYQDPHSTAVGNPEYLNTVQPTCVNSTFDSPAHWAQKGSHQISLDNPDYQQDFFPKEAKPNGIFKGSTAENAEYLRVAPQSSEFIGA
EGFR Wt, sequence (P00533 25-1210): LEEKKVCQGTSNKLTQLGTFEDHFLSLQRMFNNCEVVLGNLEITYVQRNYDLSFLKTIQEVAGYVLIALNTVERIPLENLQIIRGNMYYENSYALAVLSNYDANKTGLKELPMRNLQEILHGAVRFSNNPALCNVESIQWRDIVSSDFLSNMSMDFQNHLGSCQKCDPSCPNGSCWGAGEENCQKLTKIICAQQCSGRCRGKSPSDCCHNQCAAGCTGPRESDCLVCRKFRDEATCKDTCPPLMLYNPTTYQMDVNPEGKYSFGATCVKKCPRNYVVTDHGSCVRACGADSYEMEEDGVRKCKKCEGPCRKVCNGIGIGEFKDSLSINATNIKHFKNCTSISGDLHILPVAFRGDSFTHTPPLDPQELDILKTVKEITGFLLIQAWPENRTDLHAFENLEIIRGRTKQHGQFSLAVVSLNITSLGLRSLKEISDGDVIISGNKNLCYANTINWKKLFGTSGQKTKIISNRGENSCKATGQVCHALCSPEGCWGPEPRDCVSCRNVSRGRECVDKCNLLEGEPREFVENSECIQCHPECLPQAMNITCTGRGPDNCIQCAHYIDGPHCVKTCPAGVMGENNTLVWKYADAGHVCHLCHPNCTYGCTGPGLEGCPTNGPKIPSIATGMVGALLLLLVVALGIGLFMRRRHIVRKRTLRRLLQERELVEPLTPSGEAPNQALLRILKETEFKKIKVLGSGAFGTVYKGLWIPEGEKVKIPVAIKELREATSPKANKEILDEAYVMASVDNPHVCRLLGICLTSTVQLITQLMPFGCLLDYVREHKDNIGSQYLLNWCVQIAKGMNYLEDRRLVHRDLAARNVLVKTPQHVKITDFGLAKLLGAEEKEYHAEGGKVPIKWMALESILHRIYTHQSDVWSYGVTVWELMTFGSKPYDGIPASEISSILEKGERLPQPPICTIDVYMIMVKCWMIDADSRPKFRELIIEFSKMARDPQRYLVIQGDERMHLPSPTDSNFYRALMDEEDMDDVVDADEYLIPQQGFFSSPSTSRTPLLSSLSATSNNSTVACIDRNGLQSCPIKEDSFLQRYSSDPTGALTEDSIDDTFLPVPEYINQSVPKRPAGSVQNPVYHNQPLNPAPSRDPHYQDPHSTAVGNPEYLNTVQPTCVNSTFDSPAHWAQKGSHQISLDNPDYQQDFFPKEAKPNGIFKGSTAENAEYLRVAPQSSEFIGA

On to `C=CC(=O)Nc1cc(Nc2nccc(-c3cn(C45CC(C#N)(C4)C5)c4ccccc34)n2)c(OC)cc1N(C)CCN(C)C` [Example 2, N-(5-((4-(1-(3-cyanobicyclo[1.1.1]pentan-1-yl)-1H-indol-3-yl)pyrimidin-2-yl)amino)-2-((2-(dimethylamino)ethyl)(methyl)amino)-4-methoxyphenyl)acrylamide], for which the IC50 in the series on H1975 (L858R/T790M) is 50 to 300 nM; in the series on PC9 (E746-A750 deletion), 50 to 300 nM; with A431 (WT), at least 300 nM; against EGFR Del-19 it was at most 10 nM; at IGF1R it was at least 100 nM; against EGFR (T790M/L858R), at most 10 nM. In addition, the IC50 was at most 10 nM against EGFR Wt and at least 100 nM against INSR.

Turning to `C=CC(=O)Nc1cc(Nc2nccc(-c3cn(C45CC(F)(C4)C5)c4ccccc34)n2)c(OC)cc1N(C)CCN(C)C` [Example 7, N-(2-((2-(dimethylamino)ethyl)(methyl)amino)-5-((4-(1-(3-fluorobicyclo[1.1.1]pentan-1-yl)-1H-indol-3-yl)pyrimidin-2-yl)amino)-4-methoxyphenyl)acrylamide], the IC50 is at most 50 nM with H1975 (L858R/T790M); at least 300 nM with PC9 (E746-A750 deletion); at least 300 nM in the series with A431 (WT); at most 10 nM at EGFR Del-19; at most 10 nM against EGFR (T790M/L858R); at most 10 nM at EGFR L858R. The compound also showed an IC50 at EGFR Wt of at most 10 nM.

As to `C=CC(=O)Nc1cc(Nc2nccc(-c3nn(C45CC(C4)C5)c4ccccc34)n2)c(OC)cc1N(C)CCN(C)C` [Example 5, N-(5-((4-(1-(bicyclo[1.1.1]pentan-1-yl)-1H-indazol-3-yl)pyrimidin-2-yl)amino)-2-((2-(dimethylamino)ethyl)(methyl)amino)-4-methoxyphenyl)acrylamide], the half-inhibitory concentration (IC50) is at most 50 nM in the series with H1975 (L858R/T790M); 50 to 300 nM in the series with PC9 (E746-A750 deletion); at least 300 nM in the series with A431 (WT); at most 10 nM at EGFR Del-19; at least 100 nM against IGF1R; at most 10 nM against EGFR (T790M/L858R). Further, the IC50 is at most 10 nM against EGFR Wt and at least 100 nM against INSR.

For the compound `C=CC(=O)Nc1cc(Nc2ncc(C#N)c(-c3cn(C45CC(C4)C5)c4ccccc34)n2)c(OC)cc1N(C)CCN(C)C` [Example 3, N-(5-((4-(1-(bicyclo[1.1.1]pentan-1-yl)-1H-indol-3-yl)-5-cyanopyrimidin-2-yl)amino)-2-((2-(dimethylamino)ethyl)(methyl)amino)-4-methoxyphenyl)acrylamide], the IC50 with H1975 (L858R/T790M) was at most 50 nM; in the series on PC9 (E746-A750 deletion) it was at most 50 nM; in the series with A431 (WT), 50 to 300 nM; against EGFR Del-19, at most 10 nM; against IGF1R, at least 100 nM; on EGFR (T790M/L858R), at most 10 nM. The IC50 at EGFR Wt was at most 10 nM; against INSR, at least 100 nM.

In the case of `C=CC(=O)Nc1cc(Nc2nccc(-c3cn(C)c4ccccc34)n2)c(OC)cc1N(C)C12CC(N(C)C)(C1)C2` [Example 6, N-(2-((3-(dimethylamino)bicyclo[1.1.1]pentan-1-yl)(methyl)amino)-4-methoxy-5-((4-(1-methyl-1H-indol-3-yl)pyrimidin-2-yl)amino)phenyl)acrylamide], the IC50 in the series on H1975 (L858R/T790M) is at least 300 nM; in the series with PC9 (E746-A750 deletion) it was at least 300 nM; in the series with A431 (WT), at least 300 nM; against EGFR Del-19, at least 100 nM; on IGF1R, at least 100 nM; against EGFR (T790M/L858R) it was at most 10 nM. In addition, the IC50 on EGFR L858R, against EGFR Wt and at INSR was at least 100 nM each time.

`C=CC(=O)Nc1cc(Nc2nccc(-c3cn(C45CC(C4)C5)c4ccccc34)n2)c(OC)cc1N(C)CCNC` [Example 8, N-(5-((4-(1-(Bicyclo[1.1.1]pentan-1-yl)-1H-indol-3-yl)pyrimidin-2-yl)amino)-4-methoxy-2-(methyl(2-(methylamino)ethyl)amino)phenyl)acrylamide]: the IC50 in the series on H1975 (L858R/T790M) is at most 50 nM; with PC9 (E746-A750 deletion), at most 50 nM; with A431 (WT), at least 300 nM; against EGFR Del-19, at most 10 nM; against IGF1R, at least 100 nM; at EGFR (T790M/L858R), at most 10 nM. Also, the IC50 on EGFR Wt was 10 to 100 nM; against INSR, at least 100 nM.

`C=CC(=O)Nc1cc(Nc2nccc(-c3cn(C)c4ccccc34)n2)c(OC)cc1N(C)C12CC(CN(C)C)(C1)C2` [Example 4, N-(2-((3-((dimethylamino)methyl)bicyclo[1.1.1]pentan-1-yl)(methyl)amino)-4-methoxy-5-((4-(1-methyl-1H-indol-3-yl)pyrimidin-2-yl)amino)phenyl)acrylamide]: the IC50 in the series on H1975 (L858R/T790M) is at least 300 nM; in the series on PC9 (E746-A750 deletion), at least 300 nM; in the series on A431 (WT) it was at least 300 nM; against EGFR Del-19, at least 100 nM; against IGF1R it was at least 100 nM; against EGFR (T790M/L858R) it was at least 100 nM. Also, the figures for the IC50 at EGFR Wt and on INSR were 10 to 100 nM and at least 100 nM, respectively.

For `C=CC(=O)Nc1cc(Nc2nccc(-c3cn(C45CC(C4)C5)c4ccccc34)n2)c(OC)cc1N(C)CCN(C)C` [Example 1, N-(5-((4-(1-(bicyclo[1.1.1]pentan-1-yl)-1H-indol-3-yl)pyrimidin-2-yl)amino)-2-((2-(dimethylamino)ethyl)(methyl)amino)-4-methoxyphenyl)acrylamide], the half-maximal inhibitory concentration (IC50) with H1975 (L858R/T790M) was at most 50 nM; in the series on PC9 (E746-A750 deletion) it was at most 50 nM; in the series with A431 (WT) it was at least 300 nM; on EGFR Del-19, at most 10 nM; at IGF1R it was at least 100 nM; against EGFR (T790M/L858R), at most 10 nM. Also, the results for the IC50 against EGFR L858R, on EGFR Wt and on INSR were at most 10 nM, at most 10 nM and at least 100 nM, respectively. The “Metabolite AZ5104, Human” value with hepatocytes is reported as “did not lead to the formation”.
